According to ChEMBL document CHEMBL1201862, “PubChem BioAssay data set” (2004):
Active and inactive are the calls of the source.

Legend:
[1] = NIH-3T3 fibroblast cytotoxicity, dose response, cytotoxicity control, cell-based, fluorescence, Alamar Blue, secondary assay (AID 2327); type: functional;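 further: NIH-3T3 mouse fibroblasts cultured with fluconazole at 8 µg/mL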
[2] = C. albicans growth with fluconazole, confirmation, fluorescence, retest (AID 2467); type: functional, cell-based
[3] = inhibitors of intracellular T. cruzi replication, confirmation, NIH3T3 host cells, beta-gal luminescence (AID 2044); type: functional, cell-based;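 further: intracellular parasites grown in NIH/3T3 mouse fibroblasts as host cells; luminescent beta-galactosidase reporter signal from transgenic T. cruzi replicating inside host cells; inhibitors lower the luminescence signal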
[4] = target: T1, Serine/threonine-protein phosphatase (Candida dubliniensis (strain CD36 / CBS 7987 / NCPF 3949 / NRRLY-17841) (Yeast), UniProt B9W6M3); assay: calcineurin pathway inhibitors in yeast reporter, dose response, S. cerevisiae, CDRE-lacZ, luminescence, secondary (AID 2388); type: functional, cell-based;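 further: yeast reporter cells carrying a calcineurin-responsive lacZ construct stimulated with calcium chloride; luminescent beta-galactosidase reporter signal in whole cells rather than isolated phosphatase activity; potency for inhibition where a drop in reporter signal means calcineurin blockade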
T1 sequence (B9W6M3 whole entry): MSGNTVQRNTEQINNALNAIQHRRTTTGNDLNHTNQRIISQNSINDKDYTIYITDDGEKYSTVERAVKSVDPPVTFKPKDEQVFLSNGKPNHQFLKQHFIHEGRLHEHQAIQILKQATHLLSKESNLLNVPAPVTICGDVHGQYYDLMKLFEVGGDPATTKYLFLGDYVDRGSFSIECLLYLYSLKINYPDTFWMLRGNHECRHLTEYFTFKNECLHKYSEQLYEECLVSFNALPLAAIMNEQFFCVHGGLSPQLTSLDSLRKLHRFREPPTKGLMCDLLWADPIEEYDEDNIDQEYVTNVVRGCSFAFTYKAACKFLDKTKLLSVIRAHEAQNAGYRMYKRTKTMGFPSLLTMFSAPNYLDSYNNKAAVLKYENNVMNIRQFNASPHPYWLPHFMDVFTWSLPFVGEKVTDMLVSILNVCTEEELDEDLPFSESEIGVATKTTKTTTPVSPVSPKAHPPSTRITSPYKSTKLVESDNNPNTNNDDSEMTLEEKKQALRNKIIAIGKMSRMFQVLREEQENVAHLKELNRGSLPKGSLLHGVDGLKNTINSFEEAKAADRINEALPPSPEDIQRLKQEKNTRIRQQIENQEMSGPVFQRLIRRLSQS

[5] = cytotoxicity toward NIH3T3 fibroblasts, dose response, counter-screen, cell-based, ATP luminescence, mouse fibroblasts (AID 2010); type: functional;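 further: cells exposed to compound for about 90 hours before reading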
[6] = THP-1 cell cytotoxicity, dose response, cytotoxicity control for non-replicating M. tuberculosis project (AID 489025); type: functional
[7] = target: T2, Microphthalmia-associated transcription factor (Homo sapiens, UniProt O75030); assay: TRPM1 promoter luciferase signal decrease, dose response, MITF inhibitor project, cell-based, SK-MEL-5, cherry-picked, set 3 (AID 493073); type: functional
T2 sequence (O75030 whole entry): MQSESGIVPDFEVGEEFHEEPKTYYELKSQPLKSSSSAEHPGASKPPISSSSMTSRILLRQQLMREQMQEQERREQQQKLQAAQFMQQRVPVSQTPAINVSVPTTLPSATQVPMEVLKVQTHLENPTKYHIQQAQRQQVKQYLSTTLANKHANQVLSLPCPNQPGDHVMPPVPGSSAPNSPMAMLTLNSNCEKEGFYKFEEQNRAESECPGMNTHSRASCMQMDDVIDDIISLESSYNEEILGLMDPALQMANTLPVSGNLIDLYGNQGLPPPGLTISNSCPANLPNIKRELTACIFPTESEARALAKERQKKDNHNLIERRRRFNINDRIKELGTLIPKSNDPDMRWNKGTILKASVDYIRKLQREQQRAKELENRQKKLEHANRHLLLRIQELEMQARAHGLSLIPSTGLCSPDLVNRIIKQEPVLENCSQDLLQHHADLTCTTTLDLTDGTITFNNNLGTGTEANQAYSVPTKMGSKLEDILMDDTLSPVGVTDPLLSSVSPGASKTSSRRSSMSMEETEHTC

cells = type: functional
[8] = target: ATP-dependent molecular chaperone HSP82 (Candida albicans (strain WO-1) (Yeast), UniProt C4YTQ8); assay: loss of DOC-induced GRE-beta-galactosidase reporter signal, dose response, Hsp90 inhibitor project, S. cerevisiae, luminescence (AID 2400); type: functional, cell-based;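 further: beta-galactosidase luminescence from glucocorticoid response element reporter as proxy for Hsp90 function; inhibitor potency where signal loss means Hsp90 inhibition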
ATP-dependent molecular chaperone HSP82, sequence (C4YTQ8 whole entry): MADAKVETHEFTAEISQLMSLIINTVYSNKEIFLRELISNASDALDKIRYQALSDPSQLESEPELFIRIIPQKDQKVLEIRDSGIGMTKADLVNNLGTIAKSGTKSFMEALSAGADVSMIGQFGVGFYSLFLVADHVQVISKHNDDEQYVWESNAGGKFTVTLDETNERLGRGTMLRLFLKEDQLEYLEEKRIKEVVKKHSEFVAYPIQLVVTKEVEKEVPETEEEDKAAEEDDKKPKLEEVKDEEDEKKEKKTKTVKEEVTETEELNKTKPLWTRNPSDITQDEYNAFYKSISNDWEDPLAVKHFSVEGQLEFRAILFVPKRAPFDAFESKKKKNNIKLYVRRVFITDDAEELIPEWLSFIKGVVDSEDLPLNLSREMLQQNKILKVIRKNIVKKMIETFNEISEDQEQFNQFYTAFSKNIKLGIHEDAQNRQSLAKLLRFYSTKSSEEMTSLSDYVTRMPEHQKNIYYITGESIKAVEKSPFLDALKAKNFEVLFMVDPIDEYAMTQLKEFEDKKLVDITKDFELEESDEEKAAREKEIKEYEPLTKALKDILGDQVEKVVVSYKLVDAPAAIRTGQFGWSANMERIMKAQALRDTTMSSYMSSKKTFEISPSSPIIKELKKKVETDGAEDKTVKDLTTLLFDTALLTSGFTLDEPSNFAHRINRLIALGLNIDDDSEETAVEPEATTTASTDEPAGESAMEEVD

[9] = target: T3, Delta-type opioid receptor (Homo sapiens, UniProt P41143); assay: HTS Image-Based Screen for Antagonists of the DOR Receptor. [Related pubchem assays (depositor defined):AID1777, AID1785, AID1786, AID2133]; type: functional
T3 sequence (P41143 whole entry): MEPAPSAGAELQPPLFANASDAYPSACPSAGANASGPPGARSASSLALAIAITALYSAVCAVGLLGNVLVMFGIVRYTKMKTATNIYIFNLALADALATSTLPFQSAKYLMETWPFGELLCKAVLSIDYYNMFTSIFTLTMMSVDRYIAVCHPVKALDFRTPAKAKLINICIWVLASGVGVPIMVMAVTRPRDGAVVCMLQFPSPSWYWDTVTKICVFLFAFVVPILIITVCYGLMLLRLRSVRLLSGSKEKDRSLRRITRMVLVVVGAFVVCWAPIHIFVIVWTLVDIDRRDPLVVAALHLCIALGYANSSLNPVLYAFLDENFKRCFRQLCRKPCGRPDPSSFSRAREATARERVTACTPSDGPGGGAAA

Mu-type opioid receptor = Mu-type opioid receptor (Homo sapiens, UniProt P35372); assay: HTS Image-Based Screen for Agonists of the MOR Receptor. [Related pubchem assays (depositor defined):AID1777, AID1785, AID1786, AID2133]; type: functional;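 further: imaging of beta-arrestin GFP recruitment into spots after receptor activation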
[10] = target: T3, Delta-type opioid receptor; assay: HTS Image-Based Screen for Agonists of the DOR Receptor. [Related pubchem assays (depositor defined):AID1777, AID1786, AID2133]; type: functional
[11] = growth suppression of PTEN-null colon cells, dose response, cell-based, HCT116 PTEN knockout (AID 1047); type: functional;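 further: HCT116 colon tumor cells with PTEN knocked out; cells exposed to compound for 60 hours before readout; potency for loss of cell viability measured by luminescence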
[12] = target: T4, Kappa-type opioid receptor (Homo sapiens, UniProt P41145); type: functional
T4 sequence (P41145 whole entry): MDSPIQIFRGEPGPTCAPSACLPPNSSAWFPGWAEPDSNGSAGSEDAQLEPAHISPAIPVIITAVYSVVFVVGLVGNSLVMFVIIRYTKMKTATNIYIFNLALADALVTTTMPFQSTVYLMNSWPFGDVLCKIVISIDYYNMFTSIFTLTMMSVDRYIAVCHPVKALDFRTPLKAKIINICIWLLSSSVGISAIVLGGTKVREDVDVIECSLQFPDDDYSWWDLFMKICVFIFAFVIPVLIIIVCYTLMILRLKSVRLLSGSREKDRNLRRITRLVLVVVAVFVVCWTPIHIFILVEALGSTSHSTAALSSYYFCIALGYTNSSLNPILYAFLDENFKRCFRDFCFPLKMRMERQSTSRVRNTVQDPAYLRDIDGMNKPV

Beta-galactosidase = Beta-galactosidase (Escherichia coli, UniProt Q8VNN2); type: functional
Beta-galactosidase, sequence (Q8VNN2 whole entry): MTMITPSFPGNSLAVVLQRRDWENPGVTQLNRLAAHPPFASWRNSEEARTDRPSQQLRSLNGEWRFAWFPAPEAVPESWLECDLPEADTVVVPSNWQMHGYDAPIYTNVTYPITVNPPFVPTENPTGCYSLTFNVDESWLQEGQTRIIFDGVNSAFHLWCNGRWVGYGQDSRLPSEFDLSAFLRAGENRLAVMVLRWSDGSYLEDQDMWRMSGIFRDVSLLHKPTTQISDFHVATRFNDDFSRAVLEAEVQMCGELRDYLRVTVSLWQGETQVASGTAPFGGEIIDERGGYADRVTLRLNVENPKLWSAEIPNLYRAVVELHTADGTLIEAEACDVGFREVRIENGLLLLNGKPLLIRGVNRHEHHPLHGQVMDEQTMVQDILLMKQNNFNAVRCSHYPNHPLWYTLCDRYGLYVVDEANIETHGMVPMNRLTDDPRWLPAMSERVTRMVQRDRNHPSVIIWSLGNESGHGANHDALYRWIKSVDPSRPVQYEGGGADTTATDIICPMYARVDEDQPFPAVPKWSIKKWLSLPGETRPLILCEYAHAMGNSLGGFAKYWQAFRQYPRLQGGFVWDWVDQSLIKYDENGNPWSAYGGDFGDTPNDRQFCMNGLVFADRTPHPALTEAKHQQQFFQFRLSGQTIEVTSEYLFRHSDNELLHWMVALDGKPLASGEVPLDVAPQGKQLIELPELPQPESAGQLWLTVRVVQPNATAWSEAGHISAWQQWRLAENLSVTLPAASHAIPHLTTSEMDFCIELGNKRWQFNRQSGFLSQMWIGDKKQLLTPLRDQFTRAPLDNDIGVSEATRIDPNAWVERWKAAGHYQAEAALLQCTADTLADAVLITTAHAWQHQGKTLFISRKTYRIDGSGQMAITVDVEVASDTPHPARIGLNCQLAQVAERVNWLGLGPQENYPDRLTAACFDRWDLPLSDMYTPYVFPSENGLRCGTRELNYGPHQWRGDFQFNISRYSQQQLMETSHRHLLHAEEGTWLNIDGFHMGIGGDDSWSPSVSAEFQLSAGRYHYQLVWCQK

[13] = growth suppression of beta-catenin-knockout colon cells, dose response, cell-based, HCT116, human colon tumor (AID 1045); type: functional;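 further: HCT116 colon tumor cells with beta catenin knocked out; cells exposed to compound for 60 hours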
[14] = target: T4, Kappa-type opioid receptor; type: functional; remark: listed apart in the source
Vero = Vero cell cytotoxicity, cytotoxicity control for flavivirus capping enzyme inhibitors (AID 588742); type: functional; conditions: Chlorocebus sabaeus
[15] = Shn3 3'UTR reporter inhibitors, dose response, cell-based, Clone20 osteoblasts, firefly luciferase, cherry-picked (AID 624132); type: functional;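 further: firefly luciferase luminescence from reporter carrying the Shn3 3'UTR in osteoblasts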
[16] = HepG2 cell cytotoxicity, dose response, cytotoxicity control for Shn3 inhibitor project, CellTiter-Glo, cherry-picked (AID 624134); type: functional, cell-based
[17] = control 3'UTR Renilla luciferase suppression, dose response, counter-screen for Shn3 inhibitor project, cell-based, Clone20-Shn3RL, cherry-picked (AID 624133); type: functional
Fatty acid synthase [18] = target: T5, Fatty acid synthase (Homo sapiens, UniProt P49327); assay: FAS thioesterase domain inhibitors, dose response, biochemical, endpoint fluorescence intensity, uHTS hits (AID 624327); type: functional;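 further: fluorescence from hydrolysis of an O-methyl fluorescein acyl ester substrate by the enzyme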
T5 sequence (P49327 whole entry, the tested form may be a part): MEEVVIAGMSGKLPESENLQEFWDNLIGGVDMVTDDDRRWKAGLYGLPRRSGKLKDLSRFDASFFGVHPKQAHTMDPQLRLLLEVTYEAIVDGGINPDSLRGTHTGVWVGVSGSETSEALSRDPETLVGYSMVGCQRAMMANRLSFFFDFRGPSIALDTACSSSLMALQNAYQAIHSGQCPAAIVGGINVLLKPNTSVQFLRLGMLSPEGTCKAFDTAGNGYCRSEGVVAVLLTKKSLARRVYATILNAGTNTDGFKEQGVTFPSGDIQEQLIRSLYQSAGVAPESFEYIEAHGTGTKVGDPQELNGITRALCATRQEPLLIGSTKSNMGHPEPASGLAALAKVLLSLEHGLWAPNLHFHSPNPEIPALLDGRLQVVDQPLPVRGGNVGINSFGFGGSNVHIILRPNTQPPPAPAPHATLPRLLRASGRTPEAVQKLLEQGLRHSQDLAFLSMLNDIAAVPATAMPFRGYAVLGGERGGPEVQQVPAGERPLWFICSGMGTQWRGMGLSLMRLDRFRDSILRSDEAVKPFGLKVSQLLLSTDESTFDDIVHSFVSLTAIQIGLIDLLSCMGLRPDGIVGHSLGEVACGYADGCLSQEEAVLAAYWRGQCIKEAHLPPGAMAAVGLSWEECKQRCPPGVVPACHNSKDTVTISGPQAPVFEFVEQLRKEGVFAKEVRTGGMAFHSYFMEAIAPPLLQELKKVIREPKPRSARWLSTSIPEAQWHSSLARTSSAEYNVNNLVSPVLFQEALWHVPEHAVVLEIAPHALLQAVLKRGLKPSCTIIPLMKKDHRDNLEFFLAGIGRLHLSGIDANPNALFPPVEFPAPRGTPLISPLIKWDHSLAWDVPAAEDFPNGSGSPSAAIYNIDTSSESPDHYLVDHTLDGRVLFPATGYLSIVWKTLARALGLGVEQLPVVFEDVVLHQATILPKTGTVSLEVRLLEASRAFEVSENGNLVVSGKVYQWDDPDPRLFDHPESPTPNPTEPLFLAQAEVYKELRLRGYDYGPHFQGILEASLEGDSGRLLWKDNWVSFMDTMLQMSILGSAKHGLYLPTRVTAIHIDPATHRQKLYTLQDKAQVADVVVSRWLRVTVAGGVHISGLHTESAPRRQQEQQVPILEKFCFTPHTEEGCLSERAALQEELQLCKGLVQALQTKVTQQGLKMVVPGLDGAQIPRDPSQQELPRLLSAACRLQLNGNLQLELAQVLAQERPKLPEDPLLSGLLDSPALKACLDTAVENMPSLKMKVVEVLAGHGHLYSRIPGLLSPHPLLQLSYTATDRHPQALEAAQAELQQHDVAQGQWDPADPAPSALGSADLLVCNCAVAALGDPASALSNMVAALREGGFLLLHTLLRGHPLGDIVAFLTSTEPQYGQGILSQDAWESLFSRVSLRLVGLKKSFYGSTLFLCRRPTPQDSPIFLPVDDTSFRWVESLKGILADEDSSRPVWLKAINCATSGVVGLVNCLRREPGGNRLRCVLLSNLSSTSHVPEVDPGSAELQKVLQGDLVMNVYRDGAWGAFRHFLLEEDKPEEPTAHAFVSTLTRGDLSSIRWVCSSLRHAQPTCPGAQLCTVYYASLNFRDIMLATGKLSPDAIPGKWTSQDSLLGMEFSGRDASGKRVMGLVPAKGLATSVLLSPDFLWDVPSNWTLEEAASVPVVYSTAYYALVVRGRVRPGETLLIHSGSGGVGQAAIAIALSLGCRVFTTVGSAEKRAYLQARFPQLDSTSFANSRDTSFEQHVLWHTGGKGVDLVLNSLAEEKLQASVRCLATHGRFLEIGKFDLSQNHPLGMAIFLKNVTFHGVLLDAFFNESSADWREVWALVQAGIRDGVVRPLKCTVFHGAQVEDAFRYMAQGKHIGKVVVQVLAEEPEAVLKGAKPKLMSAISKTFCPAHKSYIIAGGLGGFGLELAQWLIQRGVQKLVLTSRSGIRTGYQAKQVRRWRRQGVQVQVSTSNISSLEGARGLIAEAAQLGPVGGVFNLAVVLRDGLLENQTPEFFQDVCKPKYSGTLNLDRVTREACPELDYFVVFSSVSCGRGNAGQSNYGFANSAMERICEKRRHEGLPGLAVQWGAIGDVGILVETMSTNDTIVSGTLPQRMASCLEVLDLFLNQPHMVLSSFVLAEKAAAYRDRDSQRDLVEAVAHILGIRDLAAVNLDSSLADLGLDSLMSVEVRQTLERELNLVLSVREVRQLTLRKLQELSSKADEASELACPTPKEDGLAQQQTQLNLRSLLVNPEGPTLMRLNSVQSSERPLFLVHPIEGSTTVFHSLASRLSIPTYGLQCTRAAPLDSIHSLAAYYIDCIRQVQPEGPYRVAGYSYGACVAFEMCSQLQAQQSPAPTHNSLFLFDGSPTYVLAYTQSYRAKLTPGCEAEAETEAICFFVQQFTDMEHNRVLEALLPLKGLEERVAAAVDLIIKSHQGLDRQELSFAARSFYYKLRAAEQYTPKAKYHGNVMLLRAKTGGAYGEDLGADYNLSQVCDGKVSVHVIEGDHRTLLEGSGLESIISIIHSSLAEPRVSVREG

Fatty acid synthase [19] = target: T5, Fatty acid synthase; assay: FAS thioesterase domain inhibitors, dose response, biochemical, kinetic fluorescence intensity (AID 624326); type: functional;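 further: rate of fluorescence rise from hydrolysis of a fluorogenic O-methyl fluorescein ester substrate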
[20] = THP-1 cell cytotoxicity, dose response, cytotoxicity control for Vif-APOBEC3G degradation inhibitor project, THP-1 cells (AID 1117359); type: functional; conditions: Human immunodeficiency virus 1, THP-1
[21] = target: Peroxisome proliferator-activated receptor gamma/Nuclear receptor coactivator 2 (Homo sapiens, UniProt P37231); type: functional;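 further: agonist potency for raising coactivator recruitment to the receptor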
[22] = target: Peroxisome proliferator-activated receptor gamma/Nuclear receptor coactivator 1 (Homo sapiens, UniProt P37231); type: functional;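 further: agonist potency as compounds enhance coactivator SRC-1 recruitment to PPARgamma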
[23] = target: Peroxisome proliferator-activated receptor gamma/Nuclear receptor coactivator 3 (Homo sapiens, UniProt P37231); type: functional;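 further: agonist potency for raising coactivator recruitment to the receptor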
Caspase-6 = target: T6, Caspase-6 (Homo sapiens, UniProt P55212); assay: human caspase-6 inhibitors, dose response, biochemical, VEID-R110 fluorescence, cherry-pick (AID 720632)
T6 sequence (P55212 whole entry): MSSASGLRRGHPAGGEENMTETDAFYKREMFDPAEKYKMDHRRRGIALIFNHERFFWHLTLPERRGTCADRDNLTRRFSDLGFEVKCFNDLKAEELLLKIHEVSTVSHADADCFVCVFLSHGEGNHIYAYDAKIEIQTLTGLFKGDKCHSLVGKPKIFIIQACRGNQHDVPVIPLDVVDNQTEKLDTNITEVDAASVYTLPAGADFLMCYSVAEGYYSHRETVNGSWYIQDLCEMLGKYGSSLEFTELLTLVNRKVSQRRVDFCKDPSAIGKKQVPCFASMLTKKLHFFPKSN

COc1ccccc1OCC(=O)N/N=C/C=C/c1ccc([N+](=O)[O-])o1
EC50 [1]: 51.2 µM (active)
EC50 [2]: 0.654 µM (active)
EC50 [3]: 0.105 µM (active)
EC50 [4]: > 180 µM (inactive)
EC50 [5]: 14.2 µM (active)
CC50 [6]: 23 µM (active)
AC50 [7]: 7.39 µM (active)
IC50 (cells): 2.27 µM (active)
EC50 [8]: > 160 µM (inactive)

CCC(=O)OCCNc1cc(Sc2nc3ccccc3[nH]2)c2nonc2c1[N+](=O)[O-]
IC50 [9]: > 32 µM (inactive)
EC50 (Mu-type opioid receptor): > 32 µM (inactive)
EC50 [10]: > 32 µM (inactive)
EC50 [11]: 6.88 µM (active)
IC50 [12]: 2.56 µM (active)
EC50 (Beta-galactosidase): > 31.5 µM (inactive)
EC50 [13]: 5.01 µM (active)
IC50 [14]: 19.1 µM
AC50 [7]: 9.14 µM (active)
CC50 (Vero): 19 µM (active)
AC50 [15]: 1.09 µM (active)
AC50 [16]: 27.4 µM (active)
AC50 [17]: 8.68 µM (active)
IC50 (Fatty acid synthase [18]): 2.04 µM (active)
IC50 (Fatty acid synthase [19]): 0.845 µM (active)
CC50 [20]: 14.7 µM (active)

Oc1ccc(NCc2cccc(OCc3ccc(F)cc3)c2)cc1
EC50 [21]: > 79.4 µM (not active)
EC50 [22]: > 79.4 µM (not active)
EC50 [23]: > 79.4 µM (not active)
CC50 (Vero): > 40 µM (active)
AC50 (Caspase-6): 6.29 µM (active)
CC50 [20]: > 40 µM (active)

O=C(NCc1ccc(F)cc1)C(c1ccccc1)N(CC1CCCO1)C(=O)Cn1nnc2ccccc21 (stereo not given)
EC50 [1]: > 150 µM (inactive)
EC50 [2]: 1.07 µM (active)
EC50 [4]: > 180 µM (inactive)
EC50 [8]: > 150 µM (inactive)
